Laboratory results reported in patent EP0535804A1, “Peptide compounds” (HITACHI CHEMICAL CO., LTD., priority 1991, dated 1993).
Ends that are not written are not given here.

Assays:
human endothelin 1 [1] = assay: Binding activity of radioactive ligand (125I-human endothelin 1) to peptide resin; details: 125I-human endothelin 1 solution 0.131 ng/ml, 2 hours at room temperature, gamma counter
Method: After blocking the sites susceptible to adsorption on the peptide resin obtained in (2) above with 0.2% skim milk solution, the peptide was suspended in 100 ml of ^1251-human endothelin 1 (specific activity: 74 TBq- /mmol) solution (0.131 ng/ml) (prepared by dissolving in Dalbecco's phosphate buffered biological saline containing 0.1 % skim milk and 0.1 % Tween) and allowed to react for 2 hours at room temperature. Following the binding reaction, the peptide resin was thoroughly washed with washing buffer (Dalbecco's phosphate buffered biological saline containing 0.1 % Tween), and the radioactivity bound to the peptide resin was measured with a gamma counter.

human endothelin 1 [2] = assay: Enzymeimmuno competitive inhibition assay of endothelin 1 binding to peptide resin; details: 3 hours at room temperature
Method: After blocking those sites susceptible to nonspecific adsorption on the peptide resin obtained in (2) above with 0.2% skim milk solution, the peptide resin was immersed in 200 µl of human endothelin 1 solution (0.2 µg/ml) (prepared by dissolving in Dalbecco's phosphate buffered biological saline containing 0.1% skim milk and 0.1 % Tween 20). After allowing to react for 3 hours at room temperature while stirring gently, the resulting solution was used as sample solution (i).
Separate from the above, the wells of an ELISA microplate were coated overnight at 4°C with 200 µl of human endothelin 1 solution (1 wg/ml). […]
After washing the human endothelin 1 coated plate (ii) with washing buffer (Dalbecco's phosphate buffered biological saline containing 0.1% Tween), 50 µl of sample solution (i) was added followed immediately by the addition of 200 µl of anti-human endothelin 1 rabbit antibody solution (using Dalbecco's phosphate buffered biological saline containing 0.1% skim milk and 0.1% Tween as the dilution buffer). […] After similarly washing the plate and adding 200 µl of substrate solution (1 mg p-nitrophenyl phosphate/ml 1M diethanolamine buffer), the amount of p-nitrophenol released by the labelled enzyme present on the plate was determined by measuring the absorbance at 405 nm. […]

amount of human endothelin 1 bound to the peptide resin (human endothelin 1 [1]): 5.18 pg
inhibitory activity (human endothelin 1 [2]; decrease of endothelin 1 antigen activity after binding to peptide resin pins, 0.2 µg/ml): 21.1%
antigen activity of human endothelin 1 in said sample solution (i) (human endothelin 1 [2]; remaining relative to before the binding reaction to the peptide resin pins, endothelin 1 solution 0.2 µg/ml, 200 µl): 78.9%
Substance: KRGFPP
